# Results: patent US20130123287A1, “CONTROL AGENT FOR SOFT ROT AND CONTROL METHOD FOR THE SAME” (ISHIHARA SANGYO KAISHA, LTD., priority 2010, published 2013)
# Assays:
# [1] = system: bacteria causing the soft rot (Erwinia carotovora); test: Inhibition test of growth of bacteria causing soft rot, Reference Test Example 2; assay type: cell-based; details: for formed colonies (growth state), grade: PSA medium, 27 degrees Celsius, 2 days; for inhibition of growth of Erwinia carotovora (in words): active ingredient concentration of 1,000 ppm
# Excerpt: (§1) Inhibition test of growth of bacteria causing soft rot of potato An inhibition test of the growth of bacteria causing the soft rot was done, when a control agent was directly applied to the bacteria causing the soft rot. A given volume of each pesticide of azoxystrobin (Amistar-20 FLOWABLE [trade name], manufactured by Syngenta Japan K.K.), penthiopyrad (GAIA WG [trade name], manufactured by Mitsui Chemicals Agro, Inc.), flusulfamide (SCABLOCK SC [trade name] manufactured by Mitsui Chemicals Agro, Inc.), and streptomycin (Mycin Wettable powder [trade name] manufactured by Hokko Chemical Industry Co., Ltd.) was added together with a suspension of the bacteria causing the soft rot (Erwinia carotovora) to a preliminarily dissolved PSA culture medium (55 degrees Celsius) for subsequent thorough agitation, which was then spread on a plate for culturing at 27 degrees Celsius for 2 days, to examine the growth state. Subsequently, the formed colonies were examined according to the following three grades. • +: at the same level as the level of non-treated lot.
# (§2) Plus or minus: apparently less than the colonies of the non-treated lot. • −: almost no colonies observed.
# [2] = system: soft rot of Chinese cabbage; test: Test for controlling soft rot of Chinese cabbage, Example 2 / Comparative Example 2 (field, cultivar Harebutai 65); assay type: in vivo; details: 150 L/10 a sprayed onto planting holes before planting, 64 days after start
# Excerpt: Frequency of the disease=[sigma(number of plants with the onset of the disease at each severity level*index of the onset of the disease)/(plants examined*4)]*100
# Disease control value=[1-(frequency of the disease in the treated lot/frequency of the disease in the non-treated lot)]*100
# • 0: No onset • 1: Onset in some of outer leaves (shippable) • 2: Onset in outer leaves and some of head leaves (by removing damaged parts, the resulting cabbage can be shipped as small cabbage but is ranked as grade B). • 3: Most of head leaves are inflicted with the onset of the disease or with severer damages (not shippable) • 4: Whole cabbage plant is inflicted with the onset of the disease and is dead.
# 200 g/l Azoxystrobin (Amistar 20 FLOWABLE [trade name], manufactured by Syngenta Japan K.K.) was adjusted to 500 g ai/10a (0.5 g/m^2, 2500 ml Product/10a) as the amount of the active ingredient and to 150 L/10a as the volume of diluent water.
# 30% w/w triflumizol (TRIFUMIN WP [trade name], manufactured by Nippon Soda Co., Ltd.) was adjusted to 500 g ai/10a (0.5 g/m^2, 1667 g Product/10a) as the amount of the active ingredient and to 150 L/10a as the volume of diluent water.
# 100 g/1 cyazofamid (RANMAN PLOWABLE [trade name], manufactured by Ishihara Sangyo Kaisha, Ltd.) was adjusted to 500 g ai/10a (0.5 g/m^2, 5000 ml Product/10a) as the amount of the active ingredient and to 150 L/10a as the volume of diluent water.
# 50% w/w penthiopyrad (GAIA WG [trade name], manufactured by Mitsui Chemicals Agro, Inc.) was adjusted to 500 g ai/10a (0.5 g/m^2, 1000 g Product/10a) as the amount of the active ingredient and to 150 L/10a as the volume of diluent water.
# 50 g/l flusulfamide (SCABLOCK SC [trade name], manufactured by Mitsui Chemicals Agro, Inc.) was adjusted to 500 g ai/10a (0.5 g/m^2, 10000 ml Product/10a) as the amount of the active ingredient and to 150 L/10a as the volume of diluent water.
# 400 g/1 chlorothalonil (Daconil 1000 [the trade name], manufactured by Sumitomo Chemical, Limited) was adjusted to 1000 g ai/10a (1.0 g/m^2, 2500 ml Product/10a) as the amount of the active ingredient and to 150 L/10a as the volume of diluent water.
# (§3) After spreading an agricultural mulch-sheet and opening planting holes (diameter of about 5 cm) for permanent planting through the mulch-sheet, the spray solutions prepared as described above were sprayed onto the planting holes such that the amount of treated active ingredient of chlorothalonil was 1.0 g/m^2 (150 L per 10a) and the amount of each of the remaining spray solutions was 0.5 g/m^2 (150 L per 10a), followed by air-drying; subsequently, seedlings of Chinese cabbage (cultivar Harebutai 65) grown for 4 weeks in cell mold trays (128 holes/nursery box) were planted such that 19 seedlings were planted in each test lot having an area of 2.4 m^2 with two replications.
# (§4) Preparation was performed by diluting streptomycin (Mycin 20 wettable powder solution [under the trade name] manufactured by Hokko Chemical Industry Co., Ltd.) with water to 1/1000.
# (§5) In a field spread with the agricultural mulch-sheet, Chinese cabbage seedlings (cultivar: Harebutai 65) grown by the same method as in Example 2 were planted by the same method as in Example 2, for spraying the spray solution of streptomycin prepared above in (1) (at each spray volume of 300 L/10a) twice (27 days and 48 days after the planting of the seedlings) on the stems and leaves with a sprayer.
# 64 days after the start of the tests, all the plants in each lot were examined about the severity level of the disease to assess the frequency of the disease and the disease control value. In the same manner as described above, the frequency of the disease and the disease control value were determined. Additionally, soft rot is a disease with damages hardly controlled, so even a chemical at the level C determined by the tests of the effects can practically be used.
# [3] = system: bacteria causing the soft rot (Erwinia carotovora); test: Inhibition test of growth of bacteria causing soft rot, Reference Test Example 1; assay type: cell-based; details: for formed colonies (growth state), grade: PSA medium, 25 degrees Celsius, 4 days
# Protocol: as §1, with “An” for “Inhibition test of growth of bacteria causing soft rot of potato An”, “cyazofamid (RANMAN 400SC [trade name] manufactured by Ishihara Sangyo Kaisha, Ltd.), amisulbrom (LEIMAY” for “azoxystrobin (Amistar-20”, “Nissan Chemical Industries, Ltd.)” for “Syngenta Japan K.K.), penthiopyrad (GAIA WG [trade name], manufactured by Mitsui Chemicals Agro, Inc.), flusulfamide (SCABLOCK SC [trade name] manufactured by Mitsui Chemicals Agro, Inc.),”, “25” for “27”, “4” for “2”
# as §2
# [4] = system: soft rot of Chinese cabbage; test: Test for controlling soft rot of Chinese cabbage, Example 1 / Comparative Example 1 (field, cultivar Muso); assay type: in vivo; details: 250 g ai/10 a, 150 L/10 a sprayed onto planting holes before planting, 54 days after start
# Protocol: 200 g/l Azoxystrobin (Amistar 20 FLOWABLE [trade name], manufactured by Syngenta Japan K.K.) was adjusted to 250 g ai/10a (0.25 g/m^2, 1250 ml Product/10a) as the amount of the active ingredient and to 150 L/10a as the volume of diluent water.
# 100 g/l Cyazofamid (RANMAN FLOWABLE [trade name], manufactured by Ishihara Sangyo Kaisha, Ltd.) was adjusted to 250 g ai/10a (0.25 g/m^2, 2500 ml Product/10a) as the amount of the active ingredient and to 150 L/10a as the volume of diluent water.
# 177 g/l Amisulbrom (LEIMAY FLOWABLE [trade name], manufactured by Nissan Chemical Industries, Ltd.) was adjusted individually to 250 g ai/10a (0.25 g/m^2, 1412 ml Product/10a) as the amount of the active ingredient and to 150 L/10a as the volume of diluent water.
# as §3, with “about 9” for “about 5”, “of each spray solution” for “of chlorothalonil”, “was 0.25” for “was 1.0 g/m^2 (150 L per 10a) and the amount of each of the remaining spray solutions was 0.5”, “cabbage (cultivar: Muso)” for “cabbage (cultivar Harebutai 65)”, “that 30” for “that 19”, “of 6” for “of 2.4”
# as §4
# as §5, with “Muso)” for “Harebutai 65)”, “1” for “2”, “1,” for “2,”, “three times (13 days, 20” for “twice (27”, “27” for “48”, “leaves.” for “leaves with a sprayer.”
# 54 days after the start of the tests, all the plants in each lot were examined about the severity level of the disease; according to the following equations, the ratio of the plants with the onset of the disease, the frequency of the disease, and the disease control value were calculated to determine and rank the effects at A to D levels. Because soft rot is a disease with damages hardly controlled, herein, even a chemical at the level C determined by the tests of the effects can practically be used.
# Ratio of the plants with the onset of the disease=(Number of plants with the onset of the disease/number of plants examined)*100
# Frequency of the disease=[sigma(number of plants with the onset of the disease at each severity level*index of the onset of the disease)/(plants examined*4)]*100 […]
# [5] = system: bacteria causing the soft rot (Erwinia carotovora); test: Inhibition test of growth of bacteria causing soft rot, Reference Test Example 3; assay type: cell-based; details: for formed colonies (growth state), grade: PSA medium, 27 degrees Celsius, 2 days; for inhibition of growth of Erwinia carotovora (in words): active ingredient concentration of 1,000 ppm
# Excerpt: as §1, with “triflumizol (TRIFUMIN WP [trade name] manufactured by Nippon Soda Co., Ltd.), chlorothalonil (Daconil 1000” for “azoxystrobin (Amistar-20 FLOWABLE”, “Sumitomo Chemical Company, Limited)” for “Syngenta Japan K.K.), penthiopyrad (GAIA WG [trade name], manufactured by Mitsui Chemicals Agro, Inc.), flusulfamide (SCABLOCK SC [trade name] manufactured by Mitsui Chemicals Agro, Inc.),”, “lot. Plus or minus: apparently less than the colonies of the non-treated lot. • −: almost no colonies observed.” for “lot.”
Structure (SMILES),"formed colonies (growth state), grade ([1]; 100 ppm active ingredient)","formed colonies (growth state), grade ([1]; 500 ppm active ingredient)","formed colonies (growth state), grade ([1]; 1000 ppm active ingredient)",inhibition of growth of Erwinia carotovora (in words) [1],Determination of effect ([2]; 500 g ai/10 a),Determination of effect [4],"formed colonies (growth state), grade ([5]; 100 ppm active ingredient)","formed colonies (growth state), grade ([5]; 500 ppm active ingredient)","formed colonies (growth state), grade ([5]; 1000 ppm active ingredient)",inhibition of growth of Erwinia carotovora (in words) [5],other results
"CC(C)CC(C)c1sccc1NC(=O)c1cn(C)nc1C(F)(F)F (racemic) [Penthiopyrad, (RS)-N-[2-(1,3-dimethylbutyl)-3-thienyl]-1-methyl-3-(trifluoromethyl)-1H-pyrazole-4-carboxamide]","+, +","+, +","+, +",never inhibited the growth,C (C: Effective at low level (21 to 40 disease control value)),,,,,,
"Cc1c(Br)c2ccc(F)cc2n1S(=O)(=O)c1ncn(S(=O)(=O)N(C)C)n1 [Amisulbrom, 3-[(3-bromo-6-fluoro-2-methyl-1H-indol-1-yl)sulfonyl]-N,N-dimethyl-1H-1,2,4-triazole-1-sulfoneamide]",,,,,,C (C: Effective at low level (21 to 40 disease control value)),,,,,"formed colonies (growth state), grade ([3]; 100 ppm active ingredient): +, +; formed colonies (growth state), grade ([3]; 500 ppm active ingredient): +, +; formed colonies (growth state), grade ([3]; 1000 ppm active ingredient): +, +; inhibition of growth of Erwinia carotovora (in words) ([3]; active ingredient concentration of 1,000 ppm): never inhibited the growth"
"CO/C=C(/C(=O)OC)c1ccccc1Oc1cc(Oc2ccccc2C#N)ncn1 [Azoxystrobin, methyl=(E)-2-{2-[6-(2-cyanophenoxy)pyrimidin-4-yloxy]phenyl}-3-methoxyacrylate]","+, +","+, +","+, +",never inhibited the growth,B (B: Effective (41 to 60 disease control value)),C (C: Effective at low level (21 to 40 disease control value)),,,,,
"N#Cc1c(Cl)c(Cl)c(Cl)c(C#N)c1Cl [Chlorothalonil, 2,4,5,6-tetrachloro-1,3-benzene dicarbonitrile]",,,,,,,"+, +","+, +","+, +",never inhibited the growth,Determination of effect ([2]; 1000 g ai/10 a): B (B: Effective (41 to 60 disease control value))
"O=[N+]([O-])c1ccc(NS(=O)(=O)c2ccc(Cl)c(C(F)(F)F)c2)c(Cl)c1 [Flusulfamide, 2′, 4-dichloro-alpha,alpha,alpha-trifluoro-4′-nitro-m-toluenesulfone anilide]","+, +","+, +","+, +",never inhibited the growth,B (B: Effective (41 to 60 disease control value)),,,,,,
"CCCOC/C(=N\c1ccc(Cl)cc1C(F)(F)F)n1ccnc1 [Triflumizol, (E)-4-chloro-alpha,alpha,alpha-trifluoro-N-[1-imidazol-1-yl-2-propoxyethylidene]-o-to luidine]",,,,,C (C: Effective at low level (21 to 40 disease control value)),,"+, +","+, +","+, +",never inhibited the growth,
